Source: ChEMBL document CHEMBL6182910, “Design, Synthesis, and Biological Evaluation of 4-(Difluoromethyl)-1H-imidazole-5-carboxylic Acids/4-(3-Cyanophenoxy)pyrimidine-5-carboxylic Acids as P2Y1 Receptor Antagonists for Ischemic Stroke Treatment” (J Med Chem, 2025)
pIC50: −log10 of the molar value.

Legend:
P2Y purinoceptor 1 = P2Y purinoceptor 1 (Rattus norvegicus, UniProt P49651); experiment: Antagonist activity at P2Y1 receptor in platelet-rich plasma of rat assessed as inhibition of ADP-induced cytosolic Ca2+ level pretreated for 5 mins followed by ADP addition by FLUO-4 AM dye based analysis; format: functional, cell-free
Plasma [1] = experiment: Anti-platelet aggregation in platelet-rich plasma of male human assessed as inhibition of ADP-induced platelet aggregation preincubated for 15 mins followed by ADP addition measured up to 10 mins by Born's turbidometric method; format: functional, cell-free
HT-22 = experiment: Neuroprotective activity against H2O2-induced oxidative stress in mouse HT-22 cells assessed as cell viability at 10 uM preincubated for 2 hrs followed by H2O2 addition measured after 24 hrs by MTT assay (reference value: 55 +/- 4.6 %); format: functional; details: time 26 hrs, read-out: Activity
Rattus norvegicus [2] = experiment: Neuroprotective activity in MCAO-induced brain damage Sprague-Dawley rat model assessed as plasma MDA level at 10 mg/kg, iv administered immediately after arterial occlusion measured after 24 hrs (reference value: 51.7 %); format: functional
[3] = biological target: P2Y purinoceptor 12 (Rattus norvegicus) (UniProt Q9EPX4); experiment: Antagonist activity at P2Y12 receptor in platelet-rich plasma of male Sprague-Dawley rat assessed as inhibition of VASP phosphorylation at Ser239 at 30 uM pretreated for 10 mins followed by PGE1/ADP addition measured after 10 mins by ELISA relative to control; format: cell-free; details: time 20.0 min
Rattus norvegicus [4] = experiment: Anti-platelet aggregation in Sprague-Dawley rat assessed as inhibition of ADP-induced platelet aggregation at 10 mg/kg, po measured for 15 mins in presence of 2.5 uM ADP by cell counter analysis relative to control; format: functional; details: 0.25 h
[5] = Antagonist activity at P2Y1 receptor in platelet-rich plasma of male Japanese white rabbit assessed as inhibition of ADP-induced cytosolic Ca2+ level pretreated for 5 mins followed by ADP addition by FLUO-4 AM dye based analysis; format: cell-free; details: Oryctolagus cuniculus
Rattus norvegicus [6] = experiment: Neuroprotective activity in MCAO-induced brain damage Sprague-Dawley rat model assessed as reduction in brain infarction size at 10 mg/kg, iv administered immediately after arterial occlusion measured after 24 hrs by TTC staining based analysis relative to control; format: functional; design: scale not given: the % may be the effect or the level left
Plasma [7] = experiment: Anti-platelet aggregation in platelet-rich plasma of male Japanese white rabbit assessed as inhibition of ADP-induced platelet aggregation preincubated for 15 mins followed by ADP addition measured up to 10 mins by Born's turbidometric method; format: functional, cell-free; details: Oryctolagus cuniculus
Rattus norvegicus [8] = experiment: Anti-platelet aggregation in Sprague-Dawley rat assessed as inhibition of ADP-induced platelet aggregation at 10 mg/kg, po measured for 15 mins in presence of 10 uM ADP by cell counter analysis relative to control; format: functional; details: 0.25 h
Rattus norvegicus [9] = experiment: Neuroprotective activity in MCAO-induced brain damage Sprague-Dawley rat model assessed as reduction in brain water content at 10 mg/kg, iv administered immediately after arterial occlusion measured after 24 hrs; format: functional, organism-based
Rattus norvegicus [10] = experiment: Neuroprotective activity in MCAO-induced brain damage Sprague-Dawley rat model assessed as plasma GSH-px level at 10 mg/kg, iv administered immediately after arterial occlusion measured after 24 hrs; format: functional
Plasma [11] = experiment: Anti-platelet aggregation in platelet-rich plasma of male male Sprague-Dawley rat assessed as inhibition of ADP-induced platelet aggregation preincubated for 15 mins followed by ADP addition measured up to 10 mins by Born's turbidometric method; format: functional, cell-free
Rattus norvegicus [12] = experiment: Anti-platelet aggregation in Sprague-Dawley rat assessed as inhibition of ADP-induced platelet aggregation at 10 mg/kg, po measured for 15 mins in presence of 5 uM ADP by cell counter analysis relative to control; format: functional; details: 0.25 h
Oryctolagus cuniculus = organism: Oryctolagus cuniculus; experiment: Antagonist activity at P2Y12 receptor in platelet-rich plasma of male Japanese white rabbit assessed as inhibition of VASP phosphorylation at Ser239 at 30 uM pretreated for 10 mins followed by PGE1/ADP addition measured after 10 mins by ELISA relative to control; format: cell-free; details: time 20.0 min
[13] = Antagonist activity at P2Y12 receptor in platelet-rich plasma of male Japanese white rabbit assessed as inhibition of VASP phosphorylation at Ser239 pretreated for 10 mins followed by PGE1/ADP addition measured after 10 mins by ELISA; format: cell-free; details: Oryctolagus cuniculus
P2Y purinoceptor 12 = P2Y purinoceptor 12 (Rattus norvegicus, UniProt Q9EPX4); experiment: Antagonist activity at P2Y12 receptor in platelet-rich plasma of male Sprague-Dawley rat assessed as inhibition of VASP phosphorylation at Ser239 pretreated for 10 mins followed by PGE1/ADP addition measured after 10 mins by ELISA; format: cell-free
Rattus norvegicus [14] = experiment: Neuroprotective activity in MCAO-induced brain damage Sprague-Dawley rat model assessed as plasma GSH-px level at 6 mg/kg, iv administered immediately after arterial occlusion measured after 24 hrs; format: functional
Rattus norvegicus [15] = experiment: Anti-platelet aggregation in Sprague-Dawley rat assessed as inhibition of ADP-induced platelet aggregation at 6 mg/kg, po measured for 15 mins in presence of 5 uM ADP by cell counter analysis relative to control; format: functional; details: 0.25 h
Rattus norvegicus [16] = experiment: Anti-platelet aggregation in Sprague-Dawley rat assessed as inhibition of ADP-induced platelet aggregation at 6 mg/kg, po measured for 15 mins in presence of 2.5 uM ADP by cell counter analysis relative to control; format: functional; details: 0.25 h
Rattus norvegicus [17] = experiment: Neuroprotective activity in MCAO-induced brain damage Sprague-Dawley rat model assessed as reduction in brain infarction size at 6 mg/kg, iv administered immediately after arterial occlusion measured after 24 hrs by TTC staining based analysis relative to control; format: functional; design: scale not given: the % may be the effect or the level left
Rattus norvegicus [18] = experiment: Neuroprotective activity in MCAO-induced brain damage Sprague-Dawley rat model assessed as reduction in brain water content at 6 mg/kg, iv administered immediately after arterial occlusion measured after 24 hrs; format: functional, organism-based
Rattus norvegicus [19] = experiment: Neuroprotective activity in MCAO-induced brain damage Sprague-Dawley rat model assessed as plasma MDA level at 6 mg/kg, iv administered immediately after arterial occlusion measured after 24 hrs (reference value: 51.7 %); format: functional
Rattus norvegicus [20] = experiment: Anti-platelet aggregation in Sprague-Dawley rat assessed as inhibition of ADP-induced platelet aggregation at 6 mg/kg, po measured for 15 mins in presence of 10 uM ADP by cell counter analysis relative to control; format: functional; details: 0.25 h
[21] = Antioxidant activity assessed as inhibition of DPPH radical scavenging activity incubated for 30 mins under dark condition by absorbance based method; format: functional

Sequence of P2Y purinoceptor 12 (Rattus norvegicus) (Q9EPX4 whole entry): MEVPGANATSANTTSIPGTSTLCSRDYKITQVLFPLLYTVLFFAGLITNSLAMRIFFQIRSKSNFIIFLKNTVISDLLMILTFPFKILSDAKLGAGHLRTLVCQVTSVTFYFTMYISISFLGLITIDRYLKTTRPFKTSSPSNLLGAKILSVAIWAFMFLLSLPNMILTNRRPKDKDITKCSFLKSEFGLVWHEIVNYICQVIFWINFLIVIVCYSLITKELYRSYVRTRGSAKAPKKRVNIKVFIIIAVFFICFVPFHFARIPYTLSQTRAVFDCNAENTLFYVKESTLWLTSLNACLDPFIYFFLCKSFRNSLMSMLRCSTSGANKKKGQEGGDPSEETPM
Sequence of P2Y purinoceptor 1 (P49651 whole entry): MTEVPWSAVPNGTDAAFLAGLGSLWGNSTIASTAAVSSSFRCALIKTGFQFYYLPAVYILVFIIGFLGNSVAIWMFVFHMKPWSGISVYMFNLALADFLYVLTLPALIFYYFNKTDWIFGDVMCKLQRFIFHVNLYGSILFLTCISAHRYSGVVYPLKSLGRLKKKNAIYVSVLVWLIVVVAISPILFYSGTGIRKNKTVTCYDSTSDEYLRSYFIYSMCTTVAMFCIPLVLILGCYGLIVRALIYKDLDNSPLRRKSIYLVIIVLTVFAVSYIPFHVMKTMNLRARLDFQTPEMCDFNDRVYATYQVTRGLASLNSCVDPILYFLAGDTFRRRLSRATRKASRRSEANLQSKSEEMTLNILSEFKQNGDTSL
Sequence of P2Y purinoceptor 12 (Q9EPX4 whole entry): as the sequence (Q9EPX4 whole entry) above

Structure (SMILES) | pIC50 (P2Y purinoceptor 1) | pIC50 (Plasma [1]) | viability at 10 µM (HT-22) [%] | Activity (Rattus norvegicus [2]) [%] | inhibition in vivo at 10 mg/kg (Rattus norvegicus [4]) [%] | pIC50 [5] | pIC50 (Plasma [7]) | inhibition in vivo at 10 mg/kg (Rattus norvegicus [8]) [%] | Activity (Rattus norvegicus [9]) | Activity (Rattus norvegicus [10]) [U/ml] | pIC50 (Plasma [11]) | inhibition in vivo at 10 mg/kg (Rattus norvegicus [12]) [%] | inhibition (Oryctolagus cuniculus) [%] | other results
Cc1nc(-c2cccc(C#N)c2)n(OCc2ccc(C#N)cc2)c1C(=O)O | 5.53 | 5.37 | 81.3 | 48.8 | 34.9 | 5.39 | 5.46 | 19.1 | Active; Water Content Did Not Return To Blank Level | 677.6 | 5.42 | 35.1 | 27.9 | inhibition ([3]; filed as antagonist): 40.8%; Activity (Rattus norvegicus [6]): 33.6%
CC(C)(C)c1ccccc1Oc1ncccc1NC(=O)Nc1ccc(OC(F)(F)F)cc1 | 5.58 | 5.47 | 82.6 | 44.1 | 65.9 | 5.60 | 5.35 | 34.4 | Active; Water Content Did Not Return To Blank Level | 489.1 | 5.48 | 64.6 | 30.3 | inhibition [3]: 37.6%
CCCSc1nc(N[C@@H]2C[C@H]2c2ccc(F)c(F)c2)c2nnn([C@@H]3C[C@H](OCCO)[C@@H](O)[C@H]3O)c2n1 [TICAGRELOR] |  | 6.16 | 76 |  | 71.8 |  | 6.30 | 77.7 |  |  | 6.25 | 73.7 |  | pIC50 [13]: 5.54; pIC50 (P2Y purinoceptor 12): 5.68
CC1=NN(c2ccccc2)C(=O)C1 [EDARAVONE] |  |  |  |  |  |  |  |  |  |  |  |  |  | Activity (Rattus norvegicus [14]): 579.3 U/ml; inhibition in vivo at 6 mg/kg (Rattus norvegicus [15]): 48.5%; inhibition in vivo at 6 mg/kg (Rattus norvegicus [16]): 55.4%; Activity (Rattus norvegicus [17]): 35.7%; Activity (Rattus norvegicus [18]): Active; Water Content Did Not Return To Blank Level; Activity (Rattus norvegicus [19]): 31%; inhibition in vivo at 6 mg/kg (Rattus norvegicus [20]): 29.4%; pIC50 [21]: 4.63
